Data on 15 compounds can be found in patent US9938273B2 (Plexxikon Inc., priority 2015, dated 2018).

In one experiment the target is T1, FLT3-ITD (Homo sapiens, UniProt P36888).
T1 sequence (P36888 1-993): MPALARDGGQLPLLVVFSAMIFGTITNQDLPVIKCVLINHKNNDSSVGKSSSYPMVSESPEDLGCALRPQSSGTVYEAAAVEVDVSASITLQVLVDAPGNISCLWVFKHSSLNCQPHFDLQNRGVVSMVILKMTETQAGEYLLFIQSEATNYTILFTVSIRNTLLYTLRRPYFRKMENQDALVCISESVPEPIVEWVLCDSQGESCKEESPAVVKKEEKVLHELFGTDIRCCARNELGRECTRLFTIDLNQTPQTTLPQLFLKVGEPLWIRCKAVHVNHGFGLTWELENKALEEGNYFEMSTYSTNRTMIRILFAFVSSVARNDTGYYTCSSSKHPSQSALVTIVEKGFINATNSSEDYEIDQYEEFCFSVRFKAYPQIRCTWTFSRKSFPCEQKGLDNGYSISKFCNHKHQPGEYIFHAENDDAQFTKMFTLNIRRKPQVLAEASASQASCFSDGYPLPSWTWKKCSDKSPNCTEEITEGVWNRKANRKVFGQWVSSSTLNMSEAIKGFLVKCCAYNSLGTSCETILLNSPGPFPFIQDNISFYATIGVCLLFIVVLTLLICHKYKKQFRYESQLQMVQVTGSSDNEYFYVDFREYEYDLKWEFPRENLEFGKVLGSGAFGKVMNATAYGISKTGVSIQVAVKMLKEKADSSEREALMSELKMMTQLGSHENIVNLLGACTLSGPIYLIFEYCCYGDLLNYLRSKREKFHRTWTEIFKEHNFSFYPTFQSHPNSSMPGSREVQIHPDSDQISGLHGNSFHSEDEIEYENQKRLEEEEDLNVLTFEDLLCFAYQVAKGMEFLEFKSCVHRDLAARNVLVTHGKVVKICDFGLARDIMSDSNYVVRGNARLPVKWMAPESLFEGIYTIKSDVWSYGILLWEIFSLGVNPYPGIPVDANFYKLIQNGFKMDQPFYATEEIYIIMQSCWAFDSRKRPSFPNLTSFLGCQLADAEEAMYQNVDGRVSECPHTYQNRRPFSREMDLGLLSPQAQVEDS
The experiment is described as follows: AlphaScreen kinase assay with recombinant enzyme, FLT3-ITD. The format is biochemical. As to conditions: 8pt; read-out: FLT3_ITD 8pt: IC50. The procedure:
In order to determine the effect of compounds on FLT3 catalytic activity, kinase assays using recombinant enzymes and AlphaScreen® technology have been established. The catalytic activity of c-kit activity was also measured to determine selectivity of the compounds. When the kinases are catalytically active, they phosphorylate a biotinylated peptide substrate on tyrosine residues. Using AlphaScreen® technology, the ability of the compounds to affect the catalytic activity of the kinases can be measured quantitatively. The peptide substrate is immobilized by the AlphaScreen® Streptavidin Donor beads and, upon phosphorylation by a tyrosine kinase, can bind to AlphaScreen® Anti-Phosphotyrosine (PY20) Acceptor beads. Upon excitation of these beads with laser light at 680 nm, singlet oxygen is produced. This singlet oxygen is rapidly quenched, unless the AlphaScreen® Anti-Phosphotyrosine (PY20) Acceptor beads are in close proximity, in which case a proximity signal can be measured at 580 nm. In the presence of catalytic activity, there is a very strong proximity signal. Selective kinase inhibitors affect a decrease in this proximity signal through a decrease in tyrosine phosphorylation of the peptide substrate.
The assay was performed as summarized below.
Poly (Glu4-Tyr) Peptide, biotin conjugate [Biotin-GG(EEEEY)10EE] (SEQ ID NO: 4)
Final concentration=30 nM
Final concentration for IC50 determination=10 μM (FLT3-D835Y or FLT3-ITD) or 100 μM (c-KIT)
AlphaScreen® Phosphotyrosine (PY20) Assay Kit
Final concentration=10 μg/mL
Dilute compounds in DMSO to 20× final concentration.
Add 1 μl of compound to each well of 384 well reaction plate (Perkin Elmer #6005359).
Mix enzyme and Poly (Glu4-Tyr) Peptide substrate at 1.33× final concentration in assay buffer.
Mix ATP at 5× final concentration in assay buffer.
Add 15 μL enzyme/substrate mixture to the reaction plate.
Add 4 μL of ATP to the reaction plate.
Mix Streptavidin Donor beads at 6× final concentration in Stop/Detection buffer.
Add 5 μL Streptavidin Donor beads to the reaction plate. Centrifuge 1 minute, shake to mix, and incubate at room temperature for 20 minutes.
Mix Anti-Phosphotyrosine (PY20) Acceptor beads at 6× final concentration in Stop/Detection buffer.
Add 5 μL Anti-Phosphotyrosine (PY20) beads to the reaction plate.
Centrifuge 1 minute, shake to mix, and incubate at room temperature for 60 minutes.
Read plate on Wallac EnVision™ 2103 Multilabel Reader.

Another experiment addresses T2, FLT3-D835Y (Homo sapiens, UniProt P36888, D835Y).
T2 construct: purchased Invitrogen PV3967
T2 sequence (P36888 27-993 D835Y): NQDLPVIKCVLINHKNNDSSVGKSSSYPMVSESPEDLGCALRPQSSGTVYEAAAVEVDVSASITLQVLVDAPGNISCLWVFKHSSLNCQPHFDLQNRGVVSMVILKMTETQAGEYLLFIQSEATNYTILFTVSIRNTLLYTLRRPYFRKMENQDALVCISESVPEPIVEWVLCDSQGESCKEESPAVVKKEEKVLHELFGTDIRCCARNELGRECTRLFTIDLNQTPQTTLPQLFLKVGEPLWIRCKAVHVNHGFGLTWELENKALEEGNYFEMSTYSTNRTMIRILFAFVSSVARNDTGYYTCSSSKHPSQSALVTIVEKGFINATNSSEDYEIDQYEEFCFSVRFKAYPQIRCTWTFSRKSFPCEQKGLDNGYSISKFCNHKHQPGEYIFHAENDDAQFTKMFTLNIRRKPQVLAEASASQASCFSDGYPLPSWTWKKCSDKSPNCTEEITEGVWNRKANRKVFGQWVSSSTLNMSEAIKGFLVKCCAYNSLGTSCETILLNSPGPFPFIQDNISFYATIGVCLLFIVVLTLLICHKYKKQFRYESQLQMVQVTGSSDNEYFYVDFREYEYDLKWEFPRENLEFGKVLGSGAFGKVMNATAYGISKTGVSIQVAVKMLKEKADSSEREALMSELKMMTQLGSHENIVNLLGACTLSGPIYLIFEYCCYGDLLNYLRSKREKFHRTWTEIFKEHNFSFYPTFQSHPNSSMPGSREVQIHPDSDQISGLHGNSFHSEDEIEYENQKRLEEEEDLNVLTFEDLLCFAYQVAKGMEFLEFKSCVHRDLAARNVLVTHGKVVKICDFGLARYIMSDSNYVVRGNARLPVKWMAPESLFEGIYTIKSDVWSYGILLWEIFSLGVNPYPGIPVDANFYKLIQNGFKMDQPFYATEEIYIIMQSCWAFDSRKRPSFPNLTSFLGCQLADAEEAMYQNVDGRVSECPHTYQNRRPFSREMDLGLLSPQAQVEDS
The experiment can be described thus: AlphaScreen kinase assay with recombinant enzyme, FLT3-D835Y. It is filed as biochemical. As to conditions: 8pt, GMean. In short, it runs like this:
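Compounds in DMSO added to enzyme plus biotin-poly(Glu4-Tyr) (30 nM) in assay buffer, then ATP added. Streptavidin donor beads added (20 min, RT), then PY20 acceptor beads (60 min, RT), both at 10 μg/mL final in stop/detection buffer. IC50 conditions: 10 μM FLT3-D835Y/ITD, 100 μM c-KIT.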

One may read the IC50 as the midpoint of a concentration-inhibition curve. Regarding `CC(C)(C#N)CNC(=O)c1cccc(-c2cnc3[nH]c(C4=CCN(C(=O)C5CC5)CC4)cc3c2)n1` [Compound P-0162, N-(2-cyano-2-methyl-propyl)-6-[2-[1-(cyclopropanecarbonyl)-3,6-dihydro-2H-pyridin-4-yl]-1H-pyrrolo[2,3-b]pyridin-5-yl]pyridine-2-carboxamide], the IC50 at FLT3-ITD and on FLT3-D835Y was 0.0001 to 10 µM in each case.

For `N#CC1CCN(C(=O)c2cccc(-c3cnc4[nH]c(C5=CCOCC5)c(Cl)c4c3)n2)C1` (stereo not drawn) [Compound P-0142, 1-[6-[3-chloro-2-(3,6-dihydro-2H-pyran-4-yl)-1H-pyrrolo[2,3-b]pyridin-5-yl]pyridine-2-carbonyl]pyrrolidine-3-carbonitrile], the IC50 at FLT3-ITD and at FLT3-D835Y was 0.0001 to 10 µM in each case.

As for `CC(C)(C#N)CNC(=O)c1cccc(-c2cnc3[nH]c(C4=CCC(F)(F)CC4)cc3c2)n1` [Compound P-0157, N-(2-cyano-2-methyl-propyl)-6-[2-(4,4-difluorocyclohexen-1-yl)-1H-pyrrolo[2,3-b]pyridin-5-yl]pyridine-2-carboxamide], the IC50 on FLT3-ITD and at FLT3-D835Y was 0.0001 to 10 µM throughout.

With `O=C(c1cccc(-c2cnc3[nH]c(-c4ccccc4)cc3c2)n1)N1CCC(F)(F)C1` [Compound P-0093, (3,3-difluoropyrrolidin-1-yl)-[6-(2-phenyl-1H-pyrrolo[2,3-b]pyridin-5-yl)-2-pyridyl]methanone], the IC50 at FLT3-ITD and on FLT3-D835Y was 0.0001 to 10 µM each time.

For the compound `N#CC1(F)CCN(C(=O)c2cccc(-c3cnc4[nH]c(-c5ccccc5)cc4c3)n2)C1` (stereo not drawn) [Compound P-0115, 3-fluoro-1-[6-(2-phenyl-1H-pyrrolo[2,3-b]pyridin-5-yl)pyridine-2-carbonyl]pyrrolidine-3-carbonitrile], the IC50 on FLT3-ITD and on FLT3-D835Y was 0.0001 to 10 µM each time.

Consider `CC(C)(C#N)CNC(=O)c1cccc(-c2cnc3[nH]c(C4=CC[S+]([O-])CC4)cc3c2)n1` (stereo not drawn) [Compound P-0161, N-(2-cyano-2-methyl-propyl)-6-[2-(1-oxo-3,6-dihydro-2H-thiopyran-4-yl)-1H-pyrrolo[2,3-b]pyridin-5-yl]pyridine-2-carboxamide], for which the IC50 at FLT3-ITD and on FLT3-D835Y was 0.0001 to 10 µM each time.

`O=S(=O)(NC1CC1)c1cccc(-c2cnc3[nH]c(-c4ccccc4)cc3c2)n1` [Compound P-0109, N-cyclopropyl-6-(2-phenyl-1H-pyrrolo[2,3-b]pyridin-5-yl)pyridine-2-sulfonamide]: the IC50 on FLT3-ITD and at FLT3-D835Y was 0.0001 to 10 µM each time.

Take `O=C(NC1(CO)CC1)c1cccc(-c2cnc3[nH]c(-c4ccccc4)cc3c2)n1` [Compound P-0151, N-[1-(hydroxymethyl)cyclopropyl]-6-(2-phenyl-1H-pyrrolo[2,3-b]pyridin-5-yl)pyridine-2-carboxamide]: the IC50 on FLT3-ITD and at FLT3-D835Y was 0.0001 to 10 µM each time.

As for `CC(C)(C#N)NC(=O)c1cccc(-c2cnc3[nH]c(-c4cnn(CCN5CCOCC5)c4)cc3c2)n1` [Compound P-0174, N-(1-cyano-1-methyl-ethyl)-6-[2-[1-(2-morpholinoethyl)pyrazol-4-yl]-1H-pyrrolo[2,3-b]pyridin-5-yl]pyridine-2-carboxamide], the IC50 on FLT3-ITD and at FLT3-D835Y was 0.0001 to 10 µM in each case.

As to `N#CC1(NC(=O)c2cccc(-c3cnc4[nH]c(-c5ccccc5)cc4c3)n2)CC1` [Compound P-0111, N-(1-cyanocyclopropyl)-6-(2-phenyl-1H-pyrrolo[2.3-b]pyridin-5-yl]pyridine-2-carboxamide], the half-maximal inhibitory concentration (IC50) on FLT3-ITD and at FLT3-D835Y was 0.0001 to 10 µM throughout.

Regarding `CC(C)(C#N)CNC(=O)c1cccc(-c2cnc3[nH]c(-c4ccc(F)cc4)cc3c2)n1` [Compound P-0144, N-(2-cyano-2-methyl-propyl)-6-[2-(4-fluorophenyl)-1H-pyrrolo[2,3-b]pyridin-5-yl]pyridine-2-carboxamide], the IC50 at FLT3-ITD and on FLT3-D835Y was 0.0001 to 10 µM throughout.

Take `CC(C)(C)NC(=O)c1cccc(-c2cnc3[nH]c(-c4ccccc4)cc3c2)n1` [Compound P-0140, N-tert-butyl-6-(2-phenyl-1H-pyrrolo[2,3-b]pyridin-5-yl)pyridine-2-carboxamide]: the IC50 at FLT3-ITD and at FLT3-D835Y was 0.0001 to 10 µM each time.

With `CC(C)(C#N)CNC(=O)c1cccc(-c2cnc3[nH]c(-c4ccccc4)c(Cl)c3c2)n1` [Compound P-0138, 6-(3-chloro-2-phenyl-1H-pyrrolo[2,3-b]pyridin-5-yl)-N-(2-cyano-2-methyl-propyl)pyridine-2-carboxamide], the IC50 at FLT3-ITD and at FLT3-D835Y was 0.0001 to 10 µM throughout.

As to `CC(C)(C#N)NC(=O)c1cccc(-c2cnc3[nH]c(-c4ccc(F)cc4)cc3c2)n1` [Compound P-0145, N-(1-cyano-1-methyl-ethyl)-6-[2-(4-fluorophenyl)-1H-pyrrolo[2,3-b]pyridin-5-yl]pyridine-2-carboxamide], the IC50 on FLT3-ITD and on FLT3-D835Y was 0.0001 to 10 µM each time.

`CC(C)(C#N)CNC(=O)c1cccc(-c2cnc3[nH]c(-c4ccccc4)cc3c2)n1` [Compound P-0100, N-(2-cyano-2-methyl-propyl)-6-(2-phenyl-1H-pyrrolo[2,3-b]pyridin-5-yl)pyridine-2-carboxamide]: the IC50 on FLT3-ITD and at FLT3-D835Y was 0.0001 to 10 µM each time.
